Experiments:
Type in all cases: biochemical
[1] = target: T1, human leukocyte elastase (HLE) (Homo sapiens, UniProt P08246); assay: Test 1: Measurement of inhibitory activity against HLE; details: MeO-Suc-Ala-Ala-Pro-Val-pNA substrate, pH 8.6, 37° C., 10 min after mixing enzyme and inhibitor, steady state rate
T1 construct: HLE was purified according to the method described by A. J. Barrett; from tissue; host or cells: purified from natural human material by Barrett's method (Methods in Enzymology 80, 581-588, 1981)
T1 sequence (P08246 30-247 limits assumed): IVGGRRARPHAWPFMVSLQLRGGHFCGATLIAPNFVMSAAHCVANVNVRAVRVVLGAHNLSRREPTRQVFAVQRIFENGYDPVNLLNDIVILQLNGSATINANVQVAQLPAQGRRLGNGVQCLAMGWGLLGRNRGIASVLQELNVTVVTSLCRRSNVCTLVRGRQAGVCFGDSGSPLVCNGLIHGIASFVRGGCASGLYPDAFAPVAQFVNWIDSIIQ
Experimental: (§1) In order to investigate the serine protease inhibiting activity of the 4H-3,1-benzoxazin-4-one derivatives according to the present invention, human leukocyte elastase (HLE), bovine α-chymotrypsin (CYT), and human cathepsin G (HCG) were used in accordance with the following methods.
(§2) Note that the 4H-3,1-benzoxazin-4-one derivative of the present invention was dissolved in dimethylsulfoxide (DMSO) to adjust to the concentration to 1 mg/ml. This solution was serially diluted with DMSO, and twice the volume of measurement buffer was added to these DMSO solutions to provide the inhibitor solution. Test 1: Measurement of inhibitory activity against HLE
0.2M tris-hydrochloride buffer (pH=8.6)
HLE was purified according to the method described by A. J. Barrett ("Methods in Enzymology", Vol. 80, pp. 581 to 588, 1981) and adjusted to a concentration of 190 nM with measurement buffer. This solution was used as the enzyme solution.
Methoxysuccinyl-L-alanyl-L-alanyl-L-prolyl-L-valyl-paranitroanilide (Funakoshi Co. Ltd., Tokyo, Japan) as enzyme substrate was dissolved and adjusted to a concentration of 5 mM with DMSO. This DMSO solution was diluted with twice the volume of measurement buffer, and then used as the substrate solution.
(§3) The enzyme solution, the substrate solution, and the inhibitor solution were pre-incubated at 37° C. for 10 minutes. The enzyme solution (140 μl) and the inhibitor solution (30 μl) were mixed in a well of a 96-well microtiter plate (Nunc Co. Ltd., Roskilde, Denmark), and the substrate solutions (30 μl) were added 10 minutes after the mixing, thereby starting the enzyme reaction. Hydrolysis of the substrate was monitored by the measurement of absorbance at 405 nm using a micro plate photometer (Corona Co. Ltd, Tokyo, Japan). The inhibitor concentration at which the activity of HLE was inhibited by 50% (IC50) was calculated from the substrate hydrolysis rate in the steady state.

human cathepsin G (HCG) = target: T2, human cathepsin G (HCG) (Homo sapiens, UniProt P08311); assay: Test 3: Measurement of inhibitory activity against HCG; details: MeO-Suc-Ala-Ala-Pro-Phe-pNA substrate, pH 7.5, same procedure as Test 1
T2 construct: purchased Cosmo Bio Co. Ltd., Tokyo, Japan
T2 sequence (P08311 21-244 limits assumed): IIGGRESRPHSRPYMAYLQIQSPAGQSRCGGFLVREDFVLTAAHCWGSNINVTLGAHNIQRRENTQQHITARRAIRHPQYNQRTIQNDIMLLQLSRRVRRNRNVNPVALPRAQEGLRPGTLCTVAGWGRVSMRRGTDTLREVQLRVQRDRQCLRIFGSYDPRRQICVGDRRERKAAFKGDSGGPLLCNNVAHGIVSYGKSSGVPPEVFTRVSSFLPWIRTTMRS
Experimental: as §1, §2, §3
Test 3: Measurement of inhibitory activity against HCG.
0.2M tris-hydrochloride buffer (pH=7.5)
HCG (Cosmo Bio Co. Ltd., Tokyo, Japan) was adjusted to a concentration of 190 nM with the measurement buffer. This solution was used as the enzyme solution.
Methoxysuccinyl-L-alanyl-L-alanyl-L-prolyl-L-phenylalanyl-paranitroanilide (Funakoshi) as the enzyme substrate was dissolved and adjusted to a concentration of […] with DMSO. This DMSO solution was diluted with twice the volume of the measurement buffer, and then used as the substrate solution.
IC50 against HCG was determined in the same procedure detailed in Test 1.

[2] = target: T3, bovine α-chymotrypsin (CYT) (Bos taurus, UniProt P00766); assay: Test 2: Measurement of inhibitory activity against CYT; details: MeO-Suc-Ala-Ala-Pro-Phe-pNA substrate, pH 8.0, same procedures as Test 1
T3 construct: purchased Sigma Co. Ltd., St. Louise, MO
Experimental: as §1, §2, §3
Test 2: Measurement of inhibitory activity against CYT.
0.2M tris-hydrochloride buffer (pH=8.0)
CYT (Sigma Co. Ltd., St. Louise, MO) was adjusted to a concentration of 190 nM with the measurement buffer. This solution was used as the enzyme solution.
Methoxysuccinyl-L-alanyl-L-alanyl-L-prolyl-L-phenylalanyl-paranitroanilide (Funakoshi) as the enzyme substrate was dissolved and adjusted to a concentration of 5 mM with DMSO. This DMSO solution was diluted with twice the volume of measurement buffer, and then used as the substrate solution.
IC50 against CYT was determined in the same procedures detailed in Test 1.

IC50 [1] | IC50 (human cathepsin G (HCG)) | IC50 [2] | Structure (SMILES)
0.28 µM | > 50 µM | 2.89 µM | Cc1cccc2nc([C@@H](NC(=O)[C@@H]3CCCN3C(=O)OCc3ccccc3)C(C)C)oc(=O)c12 [Example 1, (1'S)-2-[1'-(N-benzyloxycarbonyl-L-prolyl)amino-2'-methyl]propyl-5-methyl-4H-3,1-benzoxazin-4-one]
1.31 µM | > 200 µM | 15.6 µM | Cc1cccc2nc([C@@H](NC(=O)[C@@H]3CCCN3C(=O)/C=C/c3ccccc3)C(C)C)oc(=O)c12 [Example 3, (1'S)-2-[1'-(N-cinnamoyl-L-prolyl)amino-2'-methyl]propyl-5-methyl-4H-3,1-benzoxazin-4-one]
0.52 µM | > 200 µM | 8.69 µM | Cc1cccc2nc([C@@H](NC(=O)[C@@H]3CCCN3C(=O)CCc3ccccc3)C(C)C)oc(=O)c12 [Example 4, (1'S)-5-methyl-2-{2'-methyl-1'-[N-(3-phenylpropionyl)-L-prolyl]amino}propyl-4H-3,1-benzoxazin-4-one]

The remaining lines, values behind:

Structure (SMILES) | IC50 [1] | IC50 (human cathepsin G (HCG)) | IC50 [2]
Cc1cccc2nc([C@@H](NC(=O)[C@@H]3CCCN3C(=O)OC(C)(C)C)C(C)C)oc(=O)c12 [Example 2, (1'S)-2-[1'-(N-tert-butyloxycarbonyl-L-prolyl)amino-2'-methyl]propyl-5-methyl-4H-3,1-benzoxazin-4-one] | 2.72 µM | 26.5 µM | 18.3 µM
CCCCCC(=O)N1CCC[C@H]1C(=O)N[C@H](c1nc2cccc(C)c2c(=O)o1)C(C)C [Example 5, (1'S)-2-[1'-(N-hexanoyl-L-prolyl)amino-2'-methyl]propyl-5-methyl-4H-3,1-benzoxazin-4-one] | 1.22 µM | > 140 µM | 11.3 µM
COC(=O)CCC(=O)N[C@@H](C)C(=O)N[C@@H](C)C(=O)N1CCC[C@H]1C(=O)N[C@H](c1nc2cccc(C)c2c(=O)o1)C(C)C [Example 6, (1'S)-2-[1'-(methoxysuccinyl-L-alanyl-L-alanyl-L-prolyl)amino-2'-methyl]propyl-5-methyl-4H-3,1-benzoxazin-4-one] | 2.98 µM | 15 µM | 22.1 µM
CSCC[C@H](NC(=O)[C@@H]1CCCN1C(=O)OCc1ccccc1)c1nc2cccc(C)c2c(=O)o1 [Example 10, (1'S)-2-[1'-(N-benzyloxycarbonyl-L-prolyl)amino-3'-(methylthio)]propyl-5-methyl-4H-3,1-benzoxazin-4-one] | 0.99 µM | > 50 µM | 4.51 µM
Cc1cccc2nc([C@@H](NC(=O)[C@@H]3C[C@@H](O)CN3C(=O)OCc3ccccc3)C(C)C)oc(=O)c12 [Example 12, (1'S)-2-[1'-(N-benzyloxycarbonyl-trans-4-hydroxy-L-prolyl)amino-2'-methyl]propyl-5-methyl-4H-3,1-benzoxazin-4-one] | 1.15 µM | > 200 µM | 10.7 µM
